Measured values as given in PubChem BioAssay (NCI).
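Protocol summary: plate cells (96-well), add compound at 5 concentrations, incubate 48 h, interpolate endpoints linearly. At the TGI there is no net growth.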

Legend:
Test in all cases: NCI tumour cell line growth inhibition, 48 h
SF-295 CNS = tested on: SF-295 CNS
COLO 205 colon = tested on: COLO 205 colon
HOP-18 NSCLC = tested on: HOP-18 NSCLC
RPMI-8226 leukemia = tested on: RPMI-8226 leukemia
LOX IMVI melanoma = tested on: LOX IMVI melanoma
XF 498 CNS = tested on: XF 498 CNS
DMS 273 small cell lung = tested on: DMS 273 small cell lung
M19-MEL melanoma = tested on: M19-MEL melanoma
SR leukemia = tested on: SR leukemia
KM20L2 colon = tested on: KM20L2 colon
DMS 114 small cell lung = tested on: DMS 114 small cell lung
NCI/ADR-RES ovarian = tested on: NCI/ADR-RES ovarian
HS 578T breast = tested on: HS 578T breast

Compound: c1cncc(CSc2nc3ccccc3nc2-c2cccs2)c1
- TGI (SF-295 CNS): > 100 µM
- TGI (COLO 205 colon): > 100 µM
- TGI (HOP-18 NSCLC): > 100 µM
- TGI (RPMI-8226 leukemia): > 100 µM
- TGI (LOX IMVI melanoma): > 100 µM
- TGI (XF 498 CNS): > 100 µM
- TGI (DMS 273 small cell lung): > 100 µM
- TGI (M19-MEL melanoma): > 100 µM
- TGI (SR leukemia): > 100 µM

Compound: CC(C)(C)c1ccnc(N=C2N=C(Nc3cc(C(C)(C)C)ccn3)c3ccccc32)c1
- TGI (SF-295 CNS): 52 µM
- TGI (COLO 205 colon): > 100 µM
- TGI (HOP-18 NSCLC): 59.6 µM
- TGI (KM20L2 colon): 59.6 µM
- TGI (LOX IMVI melanoma): > 100 µM
- TGI (XF 498 CNS): 38.6 µM
- TGI (M19-MEL melanoma): > 100 µM
- TGI (SR leukemia): > 100 µM

Compound: CC(C)(C)N=NC(C)(C)N=C=O
- TGI (DMS 114 small cell lung): > 100 µM
- TGI (SF-295 CNS): > 100 µM
- TGI (COLO 205 colon): > 100 µM
- TGI (HOP-18 NSCLC): > 100 µM
- TGI (RPMI-8226 leukemia): > 100 µM
- TGI (KM20L2 colon): > 100 µM
- TGI (LOX IMVI melanoma): > 100 µM
- TGI (XF 498 CNS): > 100 µM
- TGI (DMS 273 small cell lung): > 100 µM
- TGI (M19-MEL melanoma): > 100 µM
- TGI (SR leukemia): > 100 µM

Compound: CCCn1cc2c3c(cccc31)C1C=C(C)CN(C)C1C2 (stereo not drawn)
- TGI (DMS 114 small cell lung): 43.1 µM
- TGI (SF-295 CNS): 55.2 µM
- TGI (COLO 205 colon): 33.3 µM
- TGI (NCI/ADR-RES ovarian): 58.8 µM
- TGI (HOP-18 NSCLC): 50.5 µM
- TGI (RPMI-8226 leukemia): 25.1 µM
- TGI (KM20L2 colon): 38.8 µM
- TGI (LOX IMVI melanoma): 39.8 µM
- TGI (DMS 273 small cell lung): 47.3 µM

Compound: O=[N+]([O-])c1ccc(-c2csc(=[N+]3CCCCC3)s2)cc1
- TGI (DMS 114 small cell lung): 8.03 µM
- TGI (SF-295 CNS): > 62.5 µM
- TGI (COLO 205 colon): 5.58 µM
- TGI (HOP-18 NSCLC): > 100 µM
- TGI (RPMI-8226 leukemia): > 100 µM
- TGI (KM20L2 colon): > 100 µM
- TGI (LOX IMVI melanoma): > 100 µM
- TGI (XF 498 CNS): 48.1 µM
- TGI (DMS 273 small cell lung): > 100 µM
- TGI (M19-MEL melanoma): > 45.9 µM
- TGI (SR leukemia): > 83.3 µM

Compound: CN(C)CCCNC(=O)N/N=C/c1ccccc1
- TGI (DMS 114 small cell lung): > 100 µM
- TGI (SF-295 CNS): > 100 µM
- TGI (HOP-18 NSCLC): > 100 µM
- TGI (LOX IMVI melanoma): > 100 µM
- TGI (XF 498 CNS): > 100 µM
- TGI (DMS 273 small cell lung): > 100 µM
- TGI (M19-MEL melanoma): > 100 µM

Compound: NC(=O)C1CCN(Cc2c(Cl)c(Cl)c(CN3CCC(C(N)=O)CC3)c(Cl)c2Cl)CC1
- TGI (SF-295 CNS): 75.3 µM
- TGI (COLO 205 colon): > 100 µM
- TGI (NCI/ADR-RES ovarian): > 100 µM
- TGI (RPMI-8226 leukemia): > 100 µM
- TGI (HS 578T breast): > 100 µM
- TGI (LOX IMVI melanoma): > 100 µM
- TGI (SR leukemia): > 100 µM

Compound: NC(=O)NN=C1Cc2ccccc2C1
- TGI (SF-295 CNS): > 100 µM
- TGI (COLO 205 colon): > 100 µM
- TGI (NCI/ADR-RES ovarian): > 100 µM
- TGI (RPMI-8226 leukemia): > 100 µM
- TGI (HS 578T breast): > 100 µM
- TGI (LOX IMVI melanoma): > 100 µM
- TGI (SR leukemia): > 100 µM

Compound: CCCCNC(=O)Cn1c2ccc(Br)cc2c2nc3ccccc3nc21
- TGI (SF-295 CNS): > 100 µM
- TGI (COLO 205 colon): > 100 µM
- TGI (NCI/ADR-RES ovarian): > 100 µM
- TGI (RPMI-8226 leukemia): > 100 µM
- TGI (HS 578T breast): > 100 µM
- TGI (LOX IMVI melanoma): > 100 µM
- TGI (SR leukemia): > 100 µM

Compound: CSc1ccc(/C=C2\N=C(c3ccccc3)N(c3nc4cc(Cl)c(F)cc4s3)C2=O)cc1
- TGI (SF-295 CNS): > 100 µM
- TGI (COLO 205 colon): > 100 µM
- TGI (NCI/ADR-RES ovarian): 99.1 µM
- TGI (RPMI-8226 leukemia): > 100 µM
- TGI (HS 578T breast): 97.3 µM
- TGI (LOX IMVI melanoma): 55.6 µM
- TGI (SR leukemia): > 100 µM

Compound: CN1c2ccccc2C2=C(c3ccccc3)CC[C@@H](C(=O)N3C4CC5CC[C@@]4(CS3(=O)=O)C5(C)C)[C@@H]21 (stereo partly drawn)
- TGI (SF-295 CNS): > 100 µM
- TGI (COLO 205 colon): > 100 µM
- TGI (NCI/ADR-RES ovarian): > 100 µM
- TGI (RPMI-8226 leukemia): > 100 µM
- TGI (HS 578T breast): > 100 µM
- TGI (LOX IMVI melanoma): > 100 µM
- TGI (SR leukemia): > 100 µM

Compound: O=C1Nc2cc(F)ccc2C1=O
- TGI (DMS 114 small cell lung): > 100 µM
- TGI (SF-295 CNS): > 100 µM
- TGI (COLO 205 colon): > 100 µM
- TGI (HOP-18 NSCLC): > 100 µM
- TGI (RPMI-8226 leukemia): > 100 µM
- TGI (KM20L2 colon): > 100 µM
- TGI (LOX IMVI melanoma): > 100 µM
- TGI (XF 498 CNS): > 100 µM
- TGI (DMS 273 small cell lung): > 100 µM
- TGI (M19-MEL melanoma): > 100 µM

Compound: CC[C@H](NC(=O)OC(C)(C)C)C(=O)NCP(=O)(OCc1ccc([N+](=O)[O-])cc1)OCc1ccc([N+](=O)[O-])cc1
- TGI (SF-295 CNS): 55.7 µM
- TGI (COLO 205 colon): 30 µM
- TGI (NCI/ADR-RES ovarian): > 100 µM
- TGI (RPMI-8226 leukemia): > 100 µM
- TGI (HS 578T breast): > 100 µM
- TGI (LOX IMVI melanoma): > 100 µM
- TGI (SR leukemia): > 100 µM

Compound: CCN(CC)C(=S)N/N=C(/c1ccccc1)c1ccccn1
- TGI (SF-295 CNS): 25.4 µM
- TGI (COLO 205 colon): 0.0942 µM
- TGI (NCI/ADR-RES ovarian): 14.3 µM
- TGI (RPMI-8226 leukemia): 45.1 µM
- TGI (HS 578T breast): > 100 µM
- TGI (LOX IMVI melanoma): > 35.8 µM
- TGI (SR leukemia): 0.953 µM

Compound: O=C([C@H](O)[C@@H](O)c1cccc(Cl)c1)C12CC3CC(CC(C3)C1)C2
- TGI (SF-295 CNS): 11.4 µM
- TGI (COLO 205 colon): 4.23 µM
- TGI (NCI/ADR-RES ovarian): 5.52 µM
- TGI (RPMI-8226 leukemia): > 22.7 µM
- TGI (HS 578T breast): 6.48 µM
- TGI (LOX IMVI melanoma): 2.65 µM
- TGI (SR leukemia): > 100 µM

Compound: CC1(C)C=C(/C=C2/N(S(=O)(=O)C(F)(F)F)C(/C=C3/N(S(=O)(=O)C(F)(F)F)C(C)(C#N)CC3(C)C)=CC2(C)C)N=C1/C=C1/CC(C)(C)C(=O)N1 (stereo not drawn)
- TGI (SF-295 CNS): > 100 µM
- TGI (COLO 205 colon): 39.2 µM
- TGI (NCI/ADR-RES ovarian): > 100 µM
- TGI (RPMI-8226 leukemia): 23.4 µM
- TGI (HS 578T breast): 57.7 µM
- TGI (LOX IMVI melanoma): 72.9 µM
- TGI (SR leukemia): > 100 µM

Compound: COc1cc(N=Nc2ccc(OC)c(S(=O)(=O)O)c2)c(C)cc1N=Nc1ccc(/C=C/c2ccc(N=[N+]([O-])c3ccc(/C=C/c4ccc(N=Nc5cc(C)c(N=Nc6ccc(OC)c(S(=O)(=O)O)c6)cc5OC)cc4S(=O)(=O)O)c(S(=O)(=O)O)c3)cc2S(=O)(=O)O)c(S(=O)(=O)O)c1
- TGI (DMS 114 small cell lung): > 100 µM
- TGI (SF-295 CNS): > 100 µM
- TGI (COLO 205 colon): > 100 µM
- TGI (NCI/ADR-RES ovarian): > 100 µM
- TGI (HOP-18 NSCLC): > 100 µM
- TGI (RPMI-8226 leukemia): > 100 µM
- TGI (KM20L2 colon): > 100 µM
- TGI (LOX IMVI melanoma): > 100 µM
- TGI (XF 498 CNS): > 100 µM
- TGI (DMS 273 small cell lung): > 100 µM
- TGI (M19-MEL melanoma): > 100 µM

Compound: COC1(CC[C@H](C)COC2OC(CO)C(O)C(O)C2O)O[C@H]2C[C@H]3[C@@H]4CC=C5C[C@@H](OC6OC(CO)C(OC7OC(C)C(O)C(O)C7O)C(O)C6OC6OC(C)C(O)C(O)C6O)CC[C@]5(C)[C@H]4CC[C@]3(C)[C@H]2[C@@H]1C (stereo partly drawn)
- TGI (SF-295 CNS): 13.6 µM
- TGI (COLO 205 colon): 64 µM
- TGI (NCI/ADR-RES ovarian): 11.1 µM
- TGI (RPMI-8226 leukemia): 5.93 µM
- TGI (HS 578T breast): 6.72 µM
- TGI (LOX IMVI melanoma): 3.6 µM
- TGI (SR leukemia): > 100 µM

Compound: CSc1nc(=O)c2nc(-c3cccs3)c(-c3cccs3)nc2n1C
- TGI (SF-295 CNS): > 100 µM
- TGI (COLO 205 colon): > 100 µM
- TGI (NCI/ADR-RES ovarian): > 100 µM
- TGI (RPMI-8226 leukemia): > 100 µM
- TGI (HS 578T breast): > 100 µM
- TGI (LOX IMVI melanoma): > 100 µM
- TGI (SR leukemia): > 100 µM
